Measured values taken from patent US12043600B2, “Microbiocidal compounds” (SYNGENTA CROP PROTECTION AG, priority 2018, dated 2024).

Legend:
[1] = test system: Mycosphaerella graminicola (Septoria tritici); experiment: Mycosphaerella graminicola (Septoria tritici)/Liquid Culture (Septoria Blotch); format: cell-based; conditions: Zymoseptoria tritici; 20 ppm; liquid culture; compared to untreated control
Procedure, shortened: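 Results given as % disease control: test compound in DMSO was placed in wells first, then potato dextrose broth carrying cryostored fungal conidia was added.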

[2] = test system: Botryotinia fuckeliana (Botrytis cinerea); experiment: Botryotinia fuckeliana (Botrytis cinerea)/Liquid Culture (Gray Mould); format: cell-based; conditions: liquid culture, compared to untreated control
Protocol: Conidia of the fungus from cryogenic storage are directly mixed into nutrient broth (Vogels broth). After placing a (DMSO) solution of test compound into a microtiter plate (96-well format), the nutrient broth containing the fungal spores is added.

[3] = test system: Magnaporthe grisea (Pyricularia oryzae); experiment: whole plant or invertebrate; format: in vivo; conditions: foliar, read-out: control of Magnaporthe grisea
Plasmopara viticola = experiment: whole plant or invertebrate; format: in vivo; conditions: foliar, read-out: control of Plasmopara viticola
Phytophthora infestans = experiment: whole plant or invertebrate; format: in vivo; conditions: in Solanum lycopersicum, foliar, read-out: control of Phytophthora infestans
[4] = test system: Mycosphaerella arachidis (Cercospora arachidicola); experiment: Mycosphaerella arachidis (Cercospora arachidicola)/Liquid Culture (Early Leaf Spot); format: cell-based; conditions: liquid culture, compared to untreated control
Procedure, shortened: (§1)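 Growth inhibition read in liquid culture: spores from frozen stocks, suspended in potato dextrose broth, meet DMSO-dissolved compound placed beforehand in the plate.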

[5] = test system: Puccinia recondita f. sp. tritici; experiment: Puccinia recondita f. sp. tritici/Wheat/Leaf Disc Curative (Brown Rust); format: in vivo; conditions: foliar, wheat leaf disc curative, compared to untreated control
Procedure, shortened: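 Formulated compound, diluted in water, is applied to inoculated wheat cv. Kanzler leaf segments on agar one day post-inoculation (pre-incubation dark, 19° C, 75% rh). After 6-8 days at 19° C, 75% rh and 12 h/12 h light, activity is rated as percent disease control relative to untreated segments.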

[6] = test system: Thanatephorus cucumeris (Rhizoctonia solani); experiment: Thanatephorus cucumeris (Rhizoctonia solani)/Liquid Culture (Foot Rot, Damping-Off); format: cell-based; conditions: liquid culture, compared to untreated control
Protocol: Mycelia fragments of a newly grown liquid culture of the fungus are directly mixed into nutrient broth (PDB potato dextrose broth). After placing a (DMSO) solution of the test compounds into a microtiter plate (96-well format), the nutrient broth containing the fungal material is added.

[7] = test system: Glomerella lagenarium (Colletotrichum lagenarium); experiment: Glomerella lagenarium (Colletotrichum lagenarium)/Liquid Culture (Anthracnose); format: cell-based; conditions: Colletotrichum orbiculare, liquid culture, compared to untreated control
[8] = test system: Monographella nivalis (Microdochium nivale); experiment: Monographella nivalis (Microdochium nivale)/Liquid Culture (Foot Rot Cereals); format: cell-based; conditions: liquid culture, compared to untreated control
Procedure, shortened: as §1

[9] = test system: Blumeria graminis f. sp. tritici (Erysiphe graminis f. sp. tritici); experiment: Blumeria graminis f. sp. tritici/Wheat/Leaf Disc Preventative (Powdery Mildew on Wheat); format: in vivo; conditions: foliar, wheat leaf disc preventative, compared to untreated control
Procedure, shortened: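 Preventative leaf-disc test: percent disease control versus untreated leaf segments read 6-8 days post-application. Compound spray applied to wheat cv. Kanzler segments on agar one day before shaking infected plants over them; incubation at 20° C and 60% rh, 24 h darkness then 12 h light/12 h dark cycles.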

Phakopsora pachyrhizi = experiment: Phakopsora pachyrhizi/Soybean/Preventative (Soybean Rust); format: in vivo; conditions: foliar, 288 h, 200 ppm, soybean leaf disc preventative, compared to untreated control, read-out: control of Phakopsora pachyrhizi
[10] = test system: Puccinia recondita f. sp. tritici; experiment: Puccinia recondita f. sp. tritici/Wheat/Leaf Disc Preventative (Brown Rust); format: in vivo; conditions: foliar, 200 ppm, wheat leaf disc preventative, compared to untreated control, read-out: control of Puccinia recondita f. sp. tritici
[11] = test system: Phaeosphaeria nodorum (Septoria nodorum); experiment: Phaeosphaeria nodorum (Septoria nodorum)/Wheat/Leaf Disc Preventative (Glume Blotch); format: in vivo; conditions: Parastagonospora nodorum, foliar, wheat leaf disc preventative, compared to untreated control
Procedure, shortened: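 Preventative test: compound spray first, then spore inoculation after 2 days on cv. Kanzler wheat leaf segments. Incubation in a climate cabinet at 20 °C and 75% rh under a 12 h light/12 h dark cycle. Activity rated as % control relative to untreated discs at 5–7 days post-application.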

Alternaria solani = experiment: Alternaria solani/Tomato/Leaf Disc (Early Blight); format: in vivo; conditions: foliar, tomato leaf disc, compared to untreated control
Protocol: Tomato leaf disks cv. Baby are placed on agar in multiwell plates (24-well format) and sprayed with the formulated test compound diluted in water. The leaf disks are inoculated with a spore suspension of the fungus 2 days after application. The inoculated leaf disks are incubated at 23° C./21° C. (day/night) and 80% rh (relative humidity) under a light regime of 12/12 h (light/dark) in a climate cabinet and the activity of a compound is assessed as percent disease control compared to untreated when an appropriate level of disease damage appears on untreated check disk leaf disks (5-7 days after application).

Pyrenophora teres = experiment: Pyrenophora teres/Barley/Leaf Disc Preventative (Net Blotch); format: in vivo; conditions: foliar, 200 ppm, barley leaf disc preventative, compared to untreated control, read-out: control of Pyrenophora teres
Procedure, shortened: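 Preventative leaf-disc test: inoculation with fungal spores took place 2 days after spraying segments of barley cv. Hasso, placed on agar, with water-diluted formulated compound. Read-out is % disease control per compound.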

SMILES	inhibition of growth at 20 ppm [1] [%]	inhibition of growth at 20 ppm [2] [%]	pest or weed control at 200 ppm [3] [%]	pest or weed control at 200 ppm (Plasmopara viticola) [%]	pest or weed control at 200 ppm (Phytophthora infestans) [%]	inhibition of growth at 20 ppm [4] [%]	pest or weed control at 200 ppm [5] [%]	inhibition of growth at 20 ppm [6] [%]	inhibition of growth at 20 ppm [7] [%]	inhibition of growth at 20 ppm [8] [%]	pest or weed control at 200 ppm [9] [%]	pest or weed control at 200 ppm (Phakopsora pachyrhizi) [%]	pest or weed control at 200 ppm [10] [%]	pest or weed control at 200 ppm [11] [%]	melting point [°C]	pest or weed control at 200 ppm (Alternaria solani) [%]	pest or weed control at 200 ppm (Pyrenophora teres) [%]
CO/C=C(\Oc1cc(C)cc(-n2ccc(C(C)C)n2)c1)C(=O)OC [Compound E-35, methyl (Z)-2-[3-(3-isopropylpyrazol-1-yl)-5-methyl-phenoxy]-3-methoxy-prop-2-enoate]	≥ 80	≥ 80	≥ 80	≥ 80	≥ 80	≥ 80	≥ 80	≥ 80	≥ 80	≥ 80	≥ 80	≥ 50	≥ 80	–	–	–	–
CO/C=C(\Oc1cc(-n2cc(C3CC3)cn2)ccc1C)C(=O)OC [Compound E-50, methyl (Z)-2-[5-(4-cyclopropylpyrazol-1-yl)-2-methyl-phenoxy]-3-methoxy-prop-2-enoate]	≥ 80	≥ 80	≥ 80	≥ 80	≥ 80	≥ 80	–	≥ 80	≥ 80	≥ 80	≥ 80	≥ 50	≥ 80	≥ 80	–	–	–
CCOc1cnn(-c2ccc(C)c(O/C(=C\OC)C(=O)OC)c2)c1 [Compound E-52, methyl (Z)-2-[5-(4-ethoxypyrazol-1-yl)-2-methyl-phenoxy]-3-methoxy-prop-2-enoate]	≥ 80	≥ 80	≥ 80	≥ 80	≥ 80	≥ 80	–	≥ 80	≥ 80	≥ 80	–	≥ 50	≥ 80	–	–	–	–
CO/C=C(\Oc1cc(-n2cc(SC(C)C)cn2)ccc1C)C(=O)OC [Compound E-53, methyl (Z)-2-[5-(4-isopropylsulfanylpyrazol-1-yl)-2-methyl-phenoxy]-3-methoxy-prop-2-enoate]	≥ 80	≥ 80	≥ 80	≥ 80	≥ 80	≥ 80	–	≥ 80	≥ 80	≥ 80	–	–	≥ 80	≥ 80	–	–	–
CO/C=C(\Oc1cc(-n2cc(C)cn2)ccc1C)C(=O)OC [Compound E-59, methyl (Z)-3-methoxy-2-[2-methyl-5-(4-methylpyrazol-1-yl)phenoxy]prop-2-enoate]	≥ 80	≥ 80	≥ 80	≥ 80	≥ 80	≥ 80	–	≥ 80	≥ 80	≥ 80	≥ 80	≥ 50	≥ 80	≥ 80	–	–	–
CO/C=C(\Oc1cc(-n2ccc(C3(C)CC3)n2)ccc1C)C(=O)OC [Compound E-82, methyl (Z)-3-methoxy-2-[2-methyl-5-[3-(1-methylcyclopropyl)pyra-zol-1-yl]phenoxy]prop-2-enoate]	≥ 80	≥ 80	≥ 80	≥ 80	≥ 80	≥ 80	≥ 80	–	≥ 80	≥ 80	≥ 80	≥ 50	≥ 80	≥ 80	83 to 86	≥ 80	≥ 80
CO/C=C(\Oc1cc(-n2ccc(Br)n2)ccc1C)C(=O)OC [Compound E-83, methyl (Z)-2-[5-(3-bromopyrazol-1-yl)-2-methyl-phenoxy]-3-methoxy-prop-2-enoate]	≥ 80	–	≥ 80	≥ 80	≥ 80	≥ 80	–	–	≥ 80	≥ 80	≥ 80	–	≥ 80	≥ 80	106 to 110	≥ 80	≥ 80
CO/C=C(\Oc1cc(-n2ncc(Br)n2)ccc1C)C(=O)OC [Compound F-1, methyl (Z)-2-[5-(4-bromotriazol-2-yl)-2-methyl-phenoxy]-3-methoxy-prop-2-enoate]	≥ 80	–	≥ 80	≥ 80	≥ 80	≥ 80	≥ 80	–	≥ 80	≥ 80	≥ 80	–	≥ 80	≥ 80	–	≥ 80	≥ 80
CO/C=C(\Oc1cc(-n2ncc(C3CCCC3)n2)ccc1C)C(=O)OC [Compound F-5, methyl (Z)-2-[5-(4-cyclopentyltriazol-2-yl)-2-methyl-phenoxy]-3-methoxy-prop-2-enoate]	≥ 80	–	≥ 80	≥ 80	≥ 80	≥ 80	≥ 80	–	≥ 80	≥ 80	≥ 80	–	≥ 80	≥ 80	–	≥ 80	≥ 80
CO/C=C(\Oc1cc(-n2ncc(C(C)=NO)n2)ccc1C)C(=O)OC [Compound F-13, methyl (Z)-2-[5-[4-(N-hydroxy-C-methyl-carbonimidoyl)triazol-2-yl]-2-methyl-phenoxy]-3-methoxy-prop-2-enoate]	≥ 80	–	≥ 80	≥ 80	≥ 80	≥ 80	≥ 80	–	≥ 80	≥ 80	≥ 80	–	≥ 80	≥ 80	146 to 150	≥ 80	≥ 80
